Measured values reported in patent US10894808B2, “Polypeptide ligands specific for plasma kallikrein” (BicycleRD Limited, priority 2013, dated 2021).
Read-outs that look alike come from different tables or passages of the source. One block for each molecule: values may come before it. *1 amine or outer side, *2 acyl side, *3 side chain or, on linkers, in order; H or OH if unused. Where a SMILES comes first, the peptide text is derived from it. Bridges are numbered along the chain shown (N, C = ends). [ ]: non-standard residue; d: D form. TBMB = c1c(C[*:1])cc(C[*:3])cc1C[*:2]; hArg = N=C(N)NCCCC[C@H](N)C(=O)O; Aze = O=C(O)[C@@H]1CCN1; Sar = CNCC(=O)O

Legend:
rabbit kallikrein = rabbit kallikrein (Oryctolagus cuniculus, UniProt G1T127); test: Functional enzyme assay, inhibition of rabbit kallikrein; assay type: biochemical
Method: (§1) Functional enzyme assays were conducted in 10 mM Tris HCl, 150 mM NaCl, 10 mM MgCl2, 1 mM CaCl2 and 1 mg/mL BSA (all Sigma UK) pH 7.4 at 25° C. in solid black 96 or 384 well plates. […] Release of AMC was measured using a Pherastar FS (BMG Labtech), excitation 360 nm, emission 460 nm. The rate of the linear phase of the reaction, typically 5 to 45 minutes, was calculated in MARS data analysis software (BMG labtech). The rate was then used to calculate the IC50 and Ki in Prism (GraphPad). A four parameter inhibition non-linear regression equation was used to calculate the IC50. […]
(§2) Peptides were dissolved as the TFA-salts in their powder form, and stock solutions were usually prepared in water. All solutions were centrifuged and filtered ([…] syringe filters) prior to absorption measurement at 280 nm. Extinction coefficients were calculated based on the Trp/Tyr content of the peptide, and that of TMB (the TMB core, when contained in a peptide, has an extinction coefficient of ˜300 M^−1 cm^−1).

human plasma kallikrein = target: T1, human plasma kallikrein (Homo sapiens, UniProt P03952); test: Functional enzyme assay, inhibition of human plasma kallikrein (Z-PheArg-AMC substrate); assay type: biochemical
T1 construct: purchased Stratech, UK
Method: as §1, §2

rat plasma kallikrein = target: T2, rat plasma kallikrein (Rattus norvegicus, UniProt P14272); test: Functional enzyme assay, inhibition of rat plasma kallikrein (Z-PheArg-AMC substrate); assay type: biochemical; details: Table 1, synthetic peptides; read-out: Rat (Ki)
T2 construct: polyhistidine tag followed by proTEV cleavage site (pro-peptide) (N, cleaved yes); made in house; host or cells: HEK-293 (suspension-adapted), pEXPR-IBA42 vector
Method: as §1, §2

[1] = target: T3, biotinylated human plasma kallikrein (Homo sapiens, UniProt P03952); test: Homogeneous plate-based screening assay of TBMB-cyclised phage clones (signal:background); assay type: binding
T3 construct: The human kallikrein is non-recombinant and therefore the heavy chain is present; purchased Innovative Research, Novi, Mich., USA IHPKA; host or cells: from human plasma
Method: Assay of binding of individual clones: Library transformant colonies were picked at random and grown as individual cultures in 2TY broth containing selective antibiotic. The picked colonies were DNA-sequenced using a QIAgen PyroMark Q96 DNA sequencer to reveal the amino-acid substitution present in each clone. Where isolated, a clone of each unique substitution was assayed for human plasma kallikrein binding as follows. The phage-containing supernatant was harvested from the culture and phage were cyclised with tris bromomethyl benzene (TBMB) based on the methods of Heinis et al (Nature Chemical Biology vol. 5 pp 502-507 (2009)). The purified phage from this process were assayed for binding to biotinylated human plasma kallikrein using a homogeneous plate-based binding assay; assay read-out measured on a BMG Labtech Pherastar FS plate reader. The quantitative binding data from triplicate assay samples was averaged (mean) and expressed as signal:background (where background was a sample assayed with no target material). The signal:background was expressed as a % of the parallel parent sample. Error bars denote standard deviation of the mean. Assays shown are representative of at least 2 independent experiments. The assay data was correlated with the peptide sequences. Substitutions marked in grey were not tested (a clone was not isolated from the random library sampling). A sample of a non-binding (arbitrary) bicycle was assayed in parallel to illustrate the assay baseline.
Assay of binding of individual clones: Library transformant colonies, or selection output colonies, were picked and grown as individual cultures in 2TY broth containing selective antibiotic. The picked colonies were DNA-sequenced using a QIAgen PyroMark Q96 DNA sequencer to reveal the amino-acid substitution present in each clone, and were assayed for human plasma kallikrein binding as follows. The phage-containing supernatant was harvested from the culture and phage were cyclised with tris-bromomethylbenzene (TBMB) based on the methods of Heinis et al (Nature Chemical Biology vol. 5 pp 502-507 (2009)). The purified phage from this process were assayed for binding to biotinylated human plasma kallikrein using a homogeneous plate-based binding assay; assay read-out measured on a BMG Labtech Pherastar FS plate reader. The quantitative binding data from duplicate assay samples was averaged (mean) and expressed as signal:background. Assay data shown is representative of at least 2 independent experiments. The assay data was correlated with the peptide sequences.

[2] = Table 1, synthetic peptides, read-out: Human (Ki)
[3] = Table 3, 06-254 affinity-matured library

rabbit kallikrein, sequence (G1T127 20-629): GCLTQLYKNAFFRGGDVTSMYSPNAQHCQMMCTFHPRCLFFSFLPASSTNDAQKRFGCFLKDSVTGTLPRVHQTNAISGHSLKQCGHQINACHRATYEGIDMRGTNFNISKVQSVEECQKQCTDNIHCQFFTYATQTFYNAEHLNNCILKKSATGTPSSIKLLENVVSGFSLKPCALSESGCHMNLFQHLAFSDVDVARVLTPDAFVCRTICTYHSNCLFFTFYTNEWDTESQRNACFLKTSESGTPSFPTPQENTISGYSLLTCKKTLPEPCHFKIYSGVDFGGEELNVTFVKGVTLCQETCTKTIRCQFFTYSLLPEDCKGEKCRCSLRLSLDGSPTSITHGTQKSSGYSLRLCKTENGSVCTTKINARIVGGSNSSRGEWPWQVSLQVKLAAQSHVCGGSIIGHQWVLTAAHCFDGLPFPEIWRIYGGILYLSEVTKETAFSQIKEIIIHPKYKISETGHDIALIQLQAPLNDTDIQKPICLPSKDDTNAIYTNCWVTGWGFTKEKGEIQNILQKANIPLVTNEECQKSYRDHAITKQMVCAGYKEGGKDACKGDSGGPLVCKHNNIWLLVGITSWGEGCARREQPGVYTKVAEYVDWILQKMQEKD
T3 sequence (P03952 391-638 limits assumed): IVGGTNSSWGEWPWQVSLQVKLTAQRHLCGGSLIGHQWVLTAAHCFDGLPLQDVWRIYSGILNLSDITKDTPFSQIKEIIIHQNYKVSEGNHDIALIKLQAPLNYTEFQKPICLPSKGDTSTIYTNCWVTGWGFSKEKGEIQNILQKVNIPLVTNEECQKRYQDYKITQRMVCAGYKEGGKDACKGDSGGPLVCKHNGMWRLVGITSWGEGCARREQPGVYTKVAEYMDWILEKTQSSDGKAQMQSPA
T3 sequence (P03952 20-390 partner limits assumed): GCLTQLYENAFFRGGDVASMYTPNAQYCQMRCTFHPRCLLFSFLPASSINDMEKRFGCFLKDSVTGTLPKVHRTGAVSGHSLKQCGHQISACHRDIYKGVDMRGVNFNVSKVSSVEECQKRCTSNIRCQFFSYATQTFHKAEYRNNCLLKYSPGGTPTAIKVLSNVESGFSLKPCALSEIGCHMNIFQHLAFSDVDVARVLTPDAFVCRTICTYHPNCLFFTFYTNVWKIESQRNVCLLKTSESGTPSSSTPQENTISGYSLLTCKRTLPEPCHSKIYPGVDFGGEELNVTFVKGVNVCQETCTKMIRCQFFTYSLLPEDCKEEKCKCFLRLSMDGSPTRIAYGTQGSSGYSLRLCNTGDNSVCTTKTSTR
T1 sequence (P03952 391-638 limits assumed): as the sequence (P03952 391-638 limits assumed) above
T1 sequence (P03952 20-390 partner limits assumed): as the sequence (P03952 20-390 partner limits assumed) above
T2 sequence (P14272 391-638 limits assumed): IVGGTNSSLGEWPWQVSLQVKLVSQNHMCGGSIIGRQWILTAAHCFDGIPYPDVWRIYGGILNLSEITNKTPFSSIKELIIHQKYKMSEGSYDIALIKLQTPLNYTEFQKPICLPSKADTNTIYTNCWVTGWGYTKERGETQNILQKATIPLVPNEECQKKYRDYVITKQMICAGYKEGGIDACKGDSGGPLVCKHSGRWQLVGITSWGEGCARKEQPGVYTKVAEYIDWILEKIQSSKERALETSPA

SMILES: CC[C@H](C)[C@@H]1NC(=O)[C@H](CC(C)C)NC(=O)[C@H]([C@@H](C)O)NC(=O)[C@@H]2CSCc3cc(cc(c3)CSC[C@H](NC(C)=O)C(=O)N[C@@H](CCCNC(=N)N)C(=O)N[C@@H](CC(N)=O)C(=O)N[C@@H](Cc3ccc(O)cc3)C(=O)N[C@@H](Cc3c[nH]c4ccccc34)C(=O)N[C@@H](CC(N)=O)C(=O)N3CCC[C@H]3C(=O)N2)CSC[C@@H](C(N)=O)NC(=O)[C@H]([C@@H](C)O)NC(=O)[C@H]([C@@H](C)CC)NC(=O)[C@H](CC(N)=O)NC1=O [Ac-(06-255)] (Ac-CRNYWNPCTLINITC-NH2; linker 1-8-15 via TBMB; C-terminus assumed)
Ki (rabbit kallikrein): 342 nM

SMILES: CC[C@H](C)[C@@H]1NC(=O)[C@H](CC(C)C)NC(=O)[C@H]([C@@H](C)O)NC(=O)[C@@H]2CSCc3cc(cc(c3)CSC[C@@H](C(=O)N[C@@H](C)C(=O)N(C)CC(=O)N(C)CC(=O)N(C)CC(=O)N[C@H](CCCNC(=N)N)C(=O)N[C@H](CCCNC(=N)N)C(N)=O)NC(=O)[C@H]([C@@H](C)O)NC(=O)[C@H]([C@@H](C)CC)NC(=O)[C@H](CC(N)=O)NC1=O)CSC[C@H](NC(C)=O)C(=O)N[C@@H](CCCNC(=N)N)C(=O)N[C@@H](CC(N)=O)C(=O)N[C@@H](Cc1ccc(O)cc1)C(=O)N[C@@H](Cc1c[nH]c3ccccc13)C(=O)N[C@@H](CC(N)=O)C(=O)N1CCC[C@H]1C(=O)N2 [Ac-(06-255)-Sar3-(DArg2)] (Ac-CRNYWNPCTLINITCA[Sar][Sar][Sar][dR][dR]-NH2; linker 1-8-15 via TBMB)
Ki (human plasma kallikrein): 1.2 nM

SMILES: CC[C@H](C)[C@@H]1NC(=O)[C@H](CC(=O)O)NC(=O)[C@@H]2CCCN2C(=O)[C@H](Cc2ccc(O)cc2)NC(=O)[C@H](Cc2ccc(O)cc2)NC(=O)[C@H](C(C)C)NC(=O)[C@@H]2CSCc3cc(cc(c3)CSC[C@@H](C(=O)N[C@@H](C)C(N)=O)NC1=O)CSC[C@H](NC(=O)[C@H](C)N)C(=O)N[C@@H](CC(N)=O)C(=O)N[C@@H](CC(N)=O)C(=O)N[C@@H](Cc1ccccc1)C(=O)N1CCC[C@H]1C(=O)N[C@@H](Cc1ccccc1)C(=O)N[C@@H](CCCNC(=N)N)C(=O)N2 [06-261] (H-ACNNFPFRCVYYPDICA-NH2; linker 2-9-16 via TBMB; N-terminus assumed)
Ki (human plasma kallikrein; [2]): 0.4 nM
Ki (rat plasma kallikrein): 4 nM
Ki (rabbit kallikrein; Table 1, synthetic peptides, read-out: Rabbit (Ki)): 1040 nM
Ki (rabbit kallikrein; Table 5, read-out: Rabbit (Ki)): 1040 nM

SMILES: CC[C@H](C)[C@@H]1NC(=O)[C@H](CC(=O)O)NC(=O)[C@@H]2CCCN2C(=O)[C@H](Cc2ccc(O)cc2)NC(=O)[C@H](Cc2ccc(O)cc2)NC(=O)[C@H](C(C)C)NC(=O)[C@@H]2CSCc3cc(cc(c3)CSC[C@H](NC(C)=O)C(=O)N[C@@H](CO)C(=O)N[C@@H](Cc3ccccc3)C(=O)N3CC[C@H]3C(=O)N[C@@H](Cc3ccc(O)cc3)C(=O)N[C@@H](CCCCNC(=N)N)C(=O)N2)CSC[C@@H](C(N)=O)NC1=O [Ac-(06-550) Aze3 HArg5] (Ac-CSF[Aze]Y[hArg]CVYYPDIC-NH2; linker 1-7-14 via TBMB)
Ki (human plasma kallikrein): 0.5 nM

SMILES: CC(C)C[C@@H]1NC(=O)[C@@H]2CCCN2C(=O)[C@H](C)NC(=O)[C@H](CC(=O)O)NC(=O)[C@H](Cc2c[nH]c3ccccc23)NC(=O)[C@@H]2CCCN2C(=O)[C@@H]2CSCc3cc(cc(c3)CSC[C@@H](C(=O)N[C@@H](C)C(N)=O)NC1=O)CSC[C@H](NC(=O)[C@H](C)N)C(=O)N[C@@H](CC(N)=O)C(=O)N[C@@H](Cc1ccc(O)cc1)C(=O)N[C@@H](Cc1c[nH]c3ccccc13)C(=O)N[C@@H](CC(N)=O)C(=O)N1CCC[C@H]1C(=O)N[C@@H](Cc1c[nH]c3ccccc13)C(=O)N2 [06-259-04] (H-ACNYWNPWCPWDAPLCA-NH2; linker 2-9-16 via TBMB; N-terminus assumed)
Ki (human plasma kallikrein; Table 5, read-out: Human (Ki)): 3.4 nM

SMILES: CSCC[C@@H]1NC(=O)[C@H](CCCNC(=N)N)NC(=O)[C@H](CCCNC(=N)N)NC(=O)[C@H](Cc2ccc(O)cc2)NC(=O)[C@@H]2CSCc3cc(cc(c3)CSC[C@H](NC(=O)[C@H](C)N)C(=O)N3CCC[C@H]3C(=O)N[C@@H](CC(C)C)C(=O)N[C@@H](CO)C(=O)N[C@@H](CC(=O)O)C(=O)N[C@@H]([C@@H](C)O)C(=O)N[C@@H](CC(C)C)C(=O)N2)CSC[C@@H](C(=O)N[C@@H](C)C(N)=O)NC(=O)[C@@H]2CCCN2C(=O)[C@@H]2CCCN2C1=O [06-257] (H-ACPLSDTLCYRRMPPCA-NH2; linker 2-9-16 via TBMB; N-terminus assumed)
Ki (human plasma kallikrein; [2]): 36.1 nM
Ki (rat plasma kallikrein): 159 nM

SMILES: CC(C)[C@@H]1NC(=O)[C@H](CO)NC(=O)[C@@H]2CSCc3cc(cc(c3)CSC[C@@H](C(=O)N[C@@H](C)C(N)=O)NC(=O)[C@H](C(C)C)NC(=O)[C@@H]3CCCN3C(=O)[C@@H]3CCCN3C(=O)[C@H](CCC(=O)O)NC1=O)CSC[C@H](NC(=O)[C@H](C)N)C(=O)N[C@@H](CC(N)=O)C(=O)N[C@@H](Cc1c[nH]cn1)C(=O)N[C@@H](Cc1c[nH]c3ccccc13)C(=O)N[C@@H](CC(N)=O)C(=O)N1CCC[C@H]1C(=O)N[C@@H](Cc1c[nH]c3ccccc13)C(=O)N2 [06-259-01] (H-ACNHWNPWCSVEPPVCA-NH2; linker 2-9-16 via TBMB; N-terminus assumed)
S:B (Signal:Background) ([1]; Table 4, 06-259 affinity-matured library): 51.67

Next, values leading:

Ki (human plasma kallikrein; Table 5, read-out: Human (Ki)): 0.5 nM
S:B (Signal:Background) [1, 3]: 46.65
SMILES: CC[C@H](C)[C@@H]1NC(=O)[C@H](CC(C)C)NC(=O)[C@H](CC(=O)O)NC(=O)[C@@H]2CSCc3cc(cc(c3)CSC[C@@H](C(=O)N[C@@H](C)C(N)=O)NC(=O)[C@@H]3CCCN3C(=O)CNC(=O)[C@@H]3CCCN3C1=O)CSC[C@H](NC(=O)[C@H](C)N)C(=O)N[C@@H](CCCCN)C(=O)N[C@@H](CC(N)=O)C(=O)N[C@@H](Cc1ccc(O)cc1)C(=O)N[C@@H](Cc1c[nH]c3ccccc13)C(=O)N[C@@H](CC(N)=O)C(=O)N1CCC[C@H]1C(=O)N2 [06-254-02] (H-ACKNYWNPCDLIPGPCA-NH2; linker 2-9-16 via TBMB; N-terminus assumed)

Ki (human plasma kallikrein; Table 5, read-out: Human (Ki)): 1.4 nM
S:B (Signal:Background) [1, 3]: 56.70
SMILES: CSCC[C@@H]1NC(=O)[C@H](C(C)C)NC(=O)[C@H](CC(C)C)NC(=O)[C@H](CC(=O)O)NC(=O)[C@@H]2CSCc3cc(cc(c3)CSC[C@@H](C(=O)N[C@@H](C)C(N)=O)NC(=O)[C@H]([C@@H](C)O)NC(=O)[C@H](CC(=O)O)NC1=O)CSC[C@H](NC(=O)[C@H](C)N)C(=O)N[C@@H](CCCCN)C(=O)N[C@@H](CC(N)=O)C(=O)N[C@@H](Cc1ccc(O)cc1)C(=O)N[C@@H](Cc1c[nH]c3ccccc13)C(=O)N[C@@H](CC(N)=O)C(=O)N1CCC[C@H]1C(=O)N2 [06-254-03] (H-ACKNYWNPCDLVMDTCA-NH2; linker 2-9-16 via TBMB; N-terminus and C-terminus assumed)

S:B (Signal:Background) [1, 3]: 61.90
SMILES: CC[C@H](C)[C@@H]1NC(=O)[C@H](CC(C)C)NC(=O)[C@H](CC(=O)O)NC(=O)[C@@H]2CSCc3cc(cc(c3)CSC[C@@H](C(=O)N[C@@H](C)C(N)=O)NC(=O)[C@H]([C@@H](C)O)NC(=O)[C@H]([C@@H](C)O)NC(=O)[C@H](CCC(=O)O)NC1=O)CSC[C@H](NC(=O)[C@H](C)N)C(=O)N[C@@H](CCCCN)C(=O)N[C@@H](CC(N)=O)C(=O)N[C@@H](Cc1ccc(O)cc1)C(=O)N[C@@H](Cc1c[nH]c3ccccc13)C(=O)N[C@@H](CC(N)=O)C(=O)N1CCC[C@H]1C(=O)N2 [06-254-01] (H-ACKNYWNPCDLIETTCA-NH2; linker 2-9-16 via TBMB; N-terminus and C-terminus assumed)
